Reference: patent US20230151309A1, “PLANT-BASED HYDROALCOHOLIC FORMULATIONS FOR IMPROVING LIVER HEALTH” (priority 2021, published 2023)
“Also recorded” adds a separate entry of the source.

Tests used:
[1] = EGCG kinetics in two-compartment HuDMOP (intestine to liver to perfusate), LC-MS/MS; type: in vitro ADME, human
Text: The human dynamic multiple organ plate (HuDMOP) developed by IONTOX (U.S. Pat. No. 9,631,167 B2) was used for testing. This plate is an accepted and unique state-of-the-art in vitro platform for evaluating drugs and chemicals. The FDA recognizes such in vitro models that provide comparative information of relative toxicity between an FDA approved compound and a new submission or in vitro data that focuses on mechanism. The HuDMOP system allows collection of intestinal absorption data, pharmacokinetic data, safety, and efficacy in a single model and can feature up to 6 organ compartments. Flow between the compartments is controlled through selection of dialysis membrane appropriate for the relevant organ systems, pressures, and membrane areas. The HuDMOP system is also used to generate data to support efficacy claims for botanicals.
Simulated blood consisted of saline with human serum albumin.
Epigallocatechin gallate (EGCG) from the novel composition was used to track its intestinal permeability, its movement into simulated blood and delivery to the liver. EGCG content was measured by LC-MS/MS (FIG. 6).

[2] = EGCG level in the botanical-infused alcoholic composition by LC-MS/MS (EGCG stability); type: physicochemical; conditions: final alcoholic composition, pH below 4.65
Description: Intracellular ATP was expressed as % ATP vs. Vehicle Control. Data points represent mean±SEM of N=3 replicates.
The samples were tested by LC-MS/MS using a Waters Acquity UPLC system in-line with a Waters Xevo TO-S mass spectrometer via an electrospray interface. An EGCG powdered standard was purchased from Sigma-Aldrich. The EGCG standard was prepared as a 1 mg/mL solution in PBS containing 0.2% ascorbic acid and 0.005% EDTA to calculate the standard curve. EGCG was spiked into intestinal media at a 5% ratio of standard to media (% v/v). EGCG internal standard (IS) was prepared as a 200 ng/ml solution also using PBS containing 0.2% ascorbic acid and 0.005% EDTA. Ten μL of EGCG IS was added to 25 μL of EGCG standard, vortex mixed, and 2× extracted with 350 μL of ethyl acetate. […]
EGCG and samples of the alcoholic beverage composition were separated using a 1.0 mm×100 mm Waters HSS T3 column with 0.3% acetic acid/HO as mobile phase A and 0.3% acetic acid/acetonitrile as mobile. phase B. For gradient elution, initial B was 1%, increased to 95% Bat 2 minutes, 95% Bat 4 minutes, and back to 1% Bat 4.5 minutes. […] Data was analyzed using Waters Targetlynx application software and automatically exported as a CSV file for reporting.
EGCG was detected in the final alcoholic composition. […]

intestinal tissue = experiment: Intestinal tissue viability by MTT assay (HuDMOP); type: cell-based, human; conditions: 100 μL, 24 hr, % viable vs. vehicle control
Description: (§1) The model consisted of human 3D epidermal model (Epiltestinal tissue from MarTek) linked to HepG2 cells (Liver) linked by unidirectional simulated blood flow. Simulated blood consisted of saline with human serum albumin.
Diluted ethanol (EtOH) alone or a composition of the present invention diluted to the same level as the EtOH alone test are applied to the apical side of the intestine chamber at the start of the experiment. […] The health of the intestinal tissue was measured with a MTT assay. Pure EGCG was also applied as a control. Tissues were dosed with 100 μL of the solutions and were incubated at 37° C. with 5% CO2 for 24 hr. Cell viability was expressed at % viable vs. vehicle control. Data points represent mean±SEM of N=2 replicates.

[3] = test system: Glutathione Reductase (GSR); conditions: liver cells, 12 and 24 hr post exposure
Description: as §1
(§2) Total RNA from the liver cells was obtained following the 12 and 24 hr time points post exposure to look at specific gene expression (NQO1, HMOX1, GSR) that are part of a group that protect the cell from oxidative stress and inflammation. An increase in fold change >2 is typically considered biologically relevant.
RNA was extracted from liver cells using the RNeasy Mini kit along with Proteinase Kand DNase I digestion to remove proteins and gDNA. […] Total RNA was quantified using the NanoDrop 2000. The RNA obtained was used to measure the expression of the above target genes by RT-qPCR. […] TaqMan* fast virus 1-step master mix (Thermo Fisher) was used. One-Step RT-qPCR was performed using the QuantStudio 5 PCR Instrument from Thermo Fisher and by following the manufacturer's recommended cycling protocol. All primer/probe sets were obtained from Thermo Fisher.

Fa2N-4 cells = conditions: human, 24 h
Description: Maximum Tolerated Dose is indicated as the % EtOH where viability as assayed using ATP levels diminished to below 50%.
Samples of botanical-infused alcoholic composition were prepared as follows. The samples were diluted to in deionized water to bring the alcohol concentration down to 8%. […] Intracellular ATP was expressed as % ATP vs. Vehicle Control. Data points represent mean±SEM of N=3 replicates.
The samples were also diluted to 6 and 2% alcohol.

Heme oxygenase-1 (HMOX1) = conditions: liver cells, 12 and 24 hr post exposure
Description: as §1
Total RNA from the liver cells was obtained following the 12 and 24 hr time points post exposure to look at specific gene expression (NQO1, HMOX1, GSR) that are part of a group that protect the cell from oxidative stress and inflammation.
RNA was extracted from liver cells using the RNeasy Mini kit along with Proteinase Kand DNase I digestion to remove proteins and gDNA. DNase I was purchased from Qiagen. Total RNA was quantified using the NanoDrop 2000. The RNA obtained was used to measure the expression of the above target genes by RT-qPCR. […] TaqMan* fast virus 1-step master mix (Thermo Fisher) was used. One-Step RT-qPCR was performed using the QuantStudio 5 PCR Instrument from Thermo Fisher and by following the manufacturer's recommended cycling protocol. All primer/probe sets were obtained from Thermo Fisher.

[4] = test system: NADPH Quinone Dehydrogenase 1 (NQO1); conditions: liver cells, 12 and 24 hr post exposure
Description: as §1, §2
RNA was extracted from liver cells using the RNeasy Mini kit along with Proteinase Kand DNase I digestion to remove proteins and gDNA. DNase I was purchased from Qiagen. Total RNA was quantified using the NanoDrop 2000. The RNA obtained was used to measure the expression of the above target genes by RT-qPCR. 10.10. TaqMan* fast virus 1-step master mix (Thermo Fisher) was used. One-Step RT-qPCR was performed using the QuantStudio 5 PCR Instrument from Thermo Fisher and by following the manufacturer's recommended cycling protocol. All primer/probe sets were obtained from Thermo Fisher.

HepG2 liver cells = experiment: Reactive oxygen species (DCFDA/H2DCFDA Cellular ROS Assay Kit) in liver cells; type: cell-based; conditions: HepG2, 24 hours; ethanol at 2, 3 and 4%
Description: Reactive Oxygen Species were measured using the DCFDA/H2DCFDA Cellular ROS Assay Kit from Abeam.
Liver stress was measured by measuring the amount of reactive oxygen species (ROS) produced after exposure to the alcoholic composition. HepG2 liver cells were plated and grown overnight. […] Then the cells were exposed to the Test articles for 24 hours at 37° C. with 5% CO2. […] Amount of ROS was measured using the DCFDA/H2DCFDA Cellular ROS Assay Kit from Abeam.
Data are expressed as Fold Change vs. Negative Control. Bars represent mean±SEM of three replicate samples.

| SMILES | time EGCG starts to appear in the lower basolateral chamber ([1]; after application of composition batch 1 to intestinal tissue) [h] | time EGCG appears in the liver ([1]; after applying composition batch 1 to the intestinal tissue) [h] | EGCG in perfusate after processing in the liver compartment ([1]; composition batch 1) | EGCG maximum concentration (Cmax) ([1]; composition batch 1, after passing the intestinal membrane) | time of EGCG peak in basolateral chamber ([1]; composition batch 1, amount constant until 24 hours) [h] | EGCG stability in the composition [2] | health of the intestinal tissue (cell viability, MTT) (intestinal tissue) | GSR gene expression [3] | Maximum Tolerated Dose (ethanol causing 50% response in % ATP) (Fa2N-4 cells) [%] | HMOX1 gene expression (Heme oxygenase-1 (HMOX1)) | NQO1 gene expression [4] | increase in ROS, Fold Change vs. Negative Control (HepG2 liver cells) [fold] |
| --- | --- | --- | --- | --- | --- | --- | --- | --- | --- | --- | --- | --- |
| O=C(O[C@@H]1Cc2c(O)cc(O)cc2O[C@@H]1c1cc(O)c(O)c(O)c1)c1cc(O)c(O)c(O)c1 [EGCG, epigallocatechin gallate] | 2 | 6 | remains in the perfusate | about 1400 ng/ml | 12 | stable | not affected; also recorded: no cytotoxic effect |  |  |  |  |  |
| CCO [ethanol] |  |  |  |  |  |  | not affected | does not produce an increase | 8 | induces an increase | no increase |  |
| CC(C)(C)OO [positive control, Tert-butyl hydroperoxide] |  |  |  |  |  |  |  |  |  |  |  | 22 |
